Consider 18 compounds from ChEMBL document CHEMBL4340527, “Discovery of potent anti-inflammatory 4-(4,5,6,7-tetrahydrofuro[3,2-c]pyridin-2-yl) pyrimidin-2-amines for use as Janus kinase inhibitors” (Bioorg Med Chem, 2019).

In series [1] the target is Tyrosine-protein kinase JAK2 (Homo sapiens, UniProt O60674).
Description: Inhibition of JAK2 (unknown origin) using TK-substrate-biotin as substrate preincubated for 5 mins followed by substrate addition and measured by 30 mins by HTRF assay
Series [2] concerns the target T1, Tyrosine-protein kinase JAK3 (Homo sapiens, UniProt P52333).
T1 sequence (P52333 whole entry): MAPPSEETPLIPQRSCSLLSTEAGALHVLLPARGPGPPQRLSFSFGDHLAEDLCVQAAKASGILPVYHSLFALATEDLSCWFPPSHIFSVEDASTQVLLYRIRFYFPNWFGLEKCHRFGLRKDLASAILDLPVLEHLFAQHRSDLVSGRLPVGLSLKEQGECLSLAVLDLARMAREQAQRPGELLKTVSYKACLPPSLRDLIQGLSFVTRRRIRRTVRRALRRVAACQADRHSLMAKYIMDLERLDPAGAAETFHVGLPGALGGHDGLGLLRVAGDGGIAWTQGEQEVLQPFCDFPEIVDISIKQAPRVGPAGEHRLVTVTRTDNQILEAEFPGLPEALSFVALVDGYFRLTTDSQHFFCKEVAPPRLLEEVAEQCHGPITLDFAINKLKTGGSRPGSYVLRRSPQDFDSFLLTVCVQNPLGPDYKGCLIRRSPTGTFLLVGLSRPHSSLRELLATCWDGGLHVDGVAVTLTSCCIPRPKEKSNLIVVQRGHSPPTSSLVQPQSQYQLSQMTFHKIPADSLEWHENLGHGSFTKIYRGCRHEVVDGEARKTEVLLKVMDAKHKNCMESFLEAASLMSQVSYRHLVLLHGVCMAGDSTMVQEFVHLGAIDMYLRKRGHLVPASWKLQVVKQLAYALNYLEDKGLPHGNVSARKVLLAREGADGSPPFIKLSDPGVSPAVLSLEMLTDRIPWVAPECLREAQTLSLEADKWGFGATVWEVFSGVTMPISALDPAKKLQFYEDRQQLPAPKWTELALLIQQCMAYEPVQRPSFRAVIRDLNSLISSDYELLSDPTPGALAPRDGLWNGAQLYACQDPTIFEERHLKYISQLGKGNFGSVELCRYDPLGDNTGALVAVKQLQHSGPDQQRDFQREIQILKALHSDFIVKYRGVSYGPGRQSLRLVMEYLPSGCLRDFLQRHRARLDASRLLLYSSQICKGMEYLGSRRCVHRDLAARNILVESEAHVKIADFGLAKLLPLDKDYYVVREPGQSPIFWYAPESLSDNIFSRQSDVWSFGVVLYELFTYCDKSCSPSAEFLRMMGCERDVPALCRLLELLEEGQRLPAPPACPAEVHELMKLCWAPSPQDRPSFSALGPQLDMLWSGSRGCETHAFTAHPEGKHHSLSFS
Description: Inhibition of JAK3 (unknown origin) using TK-substrate-biotin as substrate preincubated for 5 mins followed by substrate addition and measured by 30 mins by HTRF assay

Series [3] is described as follows: in vivo. The conditions noted are these: Sprague-Dawley, rat, po, 10 mg/kg.
The conditions of series [4]: rat, in vivo, po, 10 mg/kg.
Series [5] can be described thus: Cmax in Sprague-Dawley rat at 2.5 mg/kg, iv after 2 mins to 24 hrs by LC-MS/MS analysis. Type of series: ADME, organism-based. Also noted: dose 2.5 mg/kg, route intravenous. Particulars: in vivo.
For series [6], the target named is T2, hERG (KCNH2) (Homo sapiens, UniProt Q12809). Description: Inhibition of human ERG at 0.3 uM relative to control.
The target of series [7] is Voltage-gated inwardly rectifying potassium channel KCNH2 (Homo sapiens, UniProt Q12809). The series is described as follows: Inhibition of human ERG.
The nature of series [8]: Volume of distribution in Sprague-Dawley rat at 2.5 mg/kg, iv after 2 mins to 24 hrs by LC-MS/MS analysis. In kind it is ADME, organism-based. Particulars: in vivo, read-out: Vz.
Series [9] is described as follows: in vivo. Particulars: Sprague-Dawley, rat, po, 10 mg/kg. The source holds these as a separate data set.
The target in series [10] is T2, hERG (KCNH2). Description: Inhibition of human ERG at 30 uM relative to control.
Series [11] is described as follows: Clearance in Sprague-Dawley rat at 2.5 mg/kg, iv after 2 mins to 24 hrs by LC-MS/MS analysis. In kind it is ADME, organism-based. The conditions noted are these: in vivo.
The nature of series [12]: in vivo. The conditions noted are these: Sprague-Dawley, rat, po, 10 mg/kg. The source holds these as a separate data set.
A short description of series [13]: in vivo. Particulars: Sprague-Dawley, rat, po, 10 mg/kg. The source holds these as a separate data set.
Series [14] in a line: MRT (0 to t) in Sprague-Dawley rat at 2.5 mg/kg, iv after 2 mins to 24 hrs by LC-MS/MS analysis. In kind it is ADME, organism-based. The conditions noted are these: in vivo.
Series [15] in a line: in vivo. Particulars: Sprague-Dawley, rat, po, 10 mg/kg. This is another data set of the same source.
The target in series [16] is Tyrosine-protein kinase JAK1 (Homo sapiens, UniProt P23458).
Description: Inhibition of JAK1 (unknown origin) using TK-substrate-biotin as substrate preincubated for 5 mins followed by substrate addition and measured by 30 mins by HTRF assay
The subject of series [17] is Rattus norvegicus. In kind it is functional.
Series [18] has as its system Rattus norvegicus. In kind it is functional. This is another data set of the same source.
Series [19] is described as follows: Oral bioavailability in Sprague-Dawley rat at 10 mg/kg after 2 mins to 24 hrs by LC-MS/MS analysis. Type of series: ADME, organism-based. The conditions noted are these: in vivo.
A short description of series [20]: AUC (0 to t) in Sprague-Dawley rat at 2.5 mg/kg, iv after 2 mins to 24 hrs by LC-MS/MS analysis. In kind it is ADME, organism-based. Also noted: time 0.033-24 hr, dose 2.5 mg/kg, route intravenous. The conditions noted are these: in vivo.
Series [21] deals with T2, hERG (KCNH2). Description: Inhibition of human ERG at 3 uM relative to control.
A short description of series [22]: Half life in Sprague-Dawley rat at 2.5 mg/kg, iv after 2 mins to 24 hrs by LC-MS/MS analysis. Type of series: ADME, organism-based. Particulars: in vivo.
Series [23] can be described thus: in vivo. The conditions noted are these: rat, po, 5 mg/kg.
For series [24], the target named is Non-receptor tyrosine-protein kinase TYK2 (Homo sapiens, UniProt P29597).
Chain of Non-receptor tyrosine-protein kinase TYK2 (P29597 whole entry): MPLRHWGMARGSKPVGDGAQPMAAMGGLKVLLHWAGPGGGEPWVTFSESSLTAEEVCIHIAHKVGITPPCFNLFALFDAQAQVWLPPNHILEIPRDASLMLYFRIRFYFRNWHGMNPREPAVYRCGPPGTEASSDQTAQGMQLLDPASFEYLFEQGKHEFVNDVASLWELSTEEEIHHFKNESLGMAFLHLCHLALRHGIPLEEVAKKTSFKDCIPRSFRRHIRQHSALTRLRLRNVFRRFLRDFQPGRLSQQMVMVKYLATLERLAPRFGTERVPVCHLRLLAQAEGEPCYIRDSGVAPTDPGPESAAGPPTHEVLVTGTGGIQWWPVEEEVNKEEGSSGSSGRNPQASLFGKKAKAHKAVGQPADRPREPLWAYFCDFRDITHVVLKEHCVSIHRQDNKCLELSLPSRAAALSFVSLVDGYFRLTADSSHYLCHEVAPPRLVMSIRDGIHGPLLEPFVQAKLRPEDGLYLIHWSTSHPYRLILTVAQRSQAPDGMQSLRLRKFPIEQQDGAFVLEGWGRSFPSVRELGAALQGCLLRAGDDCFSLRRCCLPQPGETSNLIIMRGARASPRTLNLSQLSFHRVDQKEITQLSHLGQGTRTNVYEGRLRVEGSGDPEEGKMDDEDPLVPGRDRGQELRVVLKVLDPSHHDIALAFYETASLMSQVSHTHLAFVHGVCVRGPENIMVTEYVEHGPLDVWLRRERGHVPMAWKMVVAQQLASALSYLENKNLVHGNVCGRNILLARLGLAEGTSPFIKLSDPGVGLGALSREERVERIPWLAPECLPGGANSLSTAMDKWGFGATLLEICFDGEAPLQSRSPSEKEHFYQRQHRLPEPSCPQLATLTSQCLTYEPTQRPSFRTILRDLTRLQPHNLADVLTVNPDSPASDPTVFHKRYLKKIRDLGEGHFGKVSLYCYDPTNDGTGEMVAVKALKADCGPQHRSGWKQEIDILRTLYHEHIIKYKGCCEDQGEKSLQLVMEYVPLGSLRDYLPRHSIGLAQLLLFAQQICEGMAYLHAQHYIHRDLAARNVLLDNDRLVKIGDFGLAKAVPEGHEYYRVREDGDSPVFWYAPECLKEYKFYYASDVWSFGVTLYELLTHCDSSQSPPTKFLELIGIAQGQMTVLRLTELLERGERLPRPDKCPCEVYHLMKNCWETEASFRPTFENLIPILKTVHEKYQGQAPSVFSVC
Description: Inhibition of Tyk2 (unknown origin)

Chain of Tyrosine-protein kinase JAK2 (O60674 whole entry): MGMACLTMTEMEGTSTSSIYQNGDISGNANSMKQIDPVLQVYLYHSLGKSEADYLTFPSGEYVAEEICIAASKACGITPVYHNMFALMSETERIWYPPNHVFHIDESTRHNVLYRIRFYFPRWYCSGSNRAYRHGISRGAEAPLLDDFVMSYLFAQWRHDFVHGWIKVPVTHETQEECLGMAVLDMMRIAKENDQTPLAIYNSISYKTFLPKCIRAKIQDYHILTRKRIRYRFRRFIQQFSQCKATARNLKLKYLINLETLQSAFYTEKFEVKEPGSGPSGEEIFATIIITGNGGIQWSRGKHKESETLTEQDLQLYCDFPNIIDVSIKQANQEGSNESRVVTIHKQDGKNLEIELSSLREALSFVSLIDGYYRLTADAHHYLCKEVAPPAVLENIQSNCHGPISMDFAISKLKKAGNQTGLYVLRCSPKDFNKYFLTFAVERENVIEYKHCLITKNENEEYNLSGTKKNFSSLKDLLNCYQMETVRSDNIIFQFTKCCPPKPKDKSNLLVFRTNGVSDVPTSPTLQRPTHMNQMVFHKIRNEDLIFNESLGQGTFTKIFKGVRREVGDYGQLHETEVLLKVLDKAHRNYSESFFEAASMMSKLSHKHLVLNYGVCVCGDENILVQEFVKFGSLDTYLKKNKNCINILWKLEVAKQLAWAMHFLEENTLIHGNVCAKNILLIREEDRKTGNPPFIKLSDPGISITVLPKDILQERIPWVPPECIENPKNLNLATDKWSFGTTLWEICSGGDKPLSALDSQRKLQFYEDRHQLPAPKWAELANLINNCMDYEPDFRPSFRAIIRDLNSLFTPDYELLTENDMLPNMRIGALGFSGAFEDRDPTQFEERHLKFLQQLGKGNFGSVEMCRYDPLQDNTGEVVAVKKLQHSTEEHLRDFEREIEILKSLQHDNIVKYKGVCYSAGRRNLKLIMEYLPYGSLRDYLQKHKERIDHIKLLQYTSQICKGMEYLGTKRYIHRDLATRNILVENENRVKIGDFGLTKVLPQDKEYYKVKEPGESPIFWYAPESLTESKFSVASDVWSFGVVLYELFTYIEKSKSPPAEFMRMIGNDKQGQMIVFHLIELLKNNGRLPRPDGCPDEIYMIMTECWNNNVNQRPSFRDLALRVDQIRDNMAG
T2 sequence (Q12809 whole entry): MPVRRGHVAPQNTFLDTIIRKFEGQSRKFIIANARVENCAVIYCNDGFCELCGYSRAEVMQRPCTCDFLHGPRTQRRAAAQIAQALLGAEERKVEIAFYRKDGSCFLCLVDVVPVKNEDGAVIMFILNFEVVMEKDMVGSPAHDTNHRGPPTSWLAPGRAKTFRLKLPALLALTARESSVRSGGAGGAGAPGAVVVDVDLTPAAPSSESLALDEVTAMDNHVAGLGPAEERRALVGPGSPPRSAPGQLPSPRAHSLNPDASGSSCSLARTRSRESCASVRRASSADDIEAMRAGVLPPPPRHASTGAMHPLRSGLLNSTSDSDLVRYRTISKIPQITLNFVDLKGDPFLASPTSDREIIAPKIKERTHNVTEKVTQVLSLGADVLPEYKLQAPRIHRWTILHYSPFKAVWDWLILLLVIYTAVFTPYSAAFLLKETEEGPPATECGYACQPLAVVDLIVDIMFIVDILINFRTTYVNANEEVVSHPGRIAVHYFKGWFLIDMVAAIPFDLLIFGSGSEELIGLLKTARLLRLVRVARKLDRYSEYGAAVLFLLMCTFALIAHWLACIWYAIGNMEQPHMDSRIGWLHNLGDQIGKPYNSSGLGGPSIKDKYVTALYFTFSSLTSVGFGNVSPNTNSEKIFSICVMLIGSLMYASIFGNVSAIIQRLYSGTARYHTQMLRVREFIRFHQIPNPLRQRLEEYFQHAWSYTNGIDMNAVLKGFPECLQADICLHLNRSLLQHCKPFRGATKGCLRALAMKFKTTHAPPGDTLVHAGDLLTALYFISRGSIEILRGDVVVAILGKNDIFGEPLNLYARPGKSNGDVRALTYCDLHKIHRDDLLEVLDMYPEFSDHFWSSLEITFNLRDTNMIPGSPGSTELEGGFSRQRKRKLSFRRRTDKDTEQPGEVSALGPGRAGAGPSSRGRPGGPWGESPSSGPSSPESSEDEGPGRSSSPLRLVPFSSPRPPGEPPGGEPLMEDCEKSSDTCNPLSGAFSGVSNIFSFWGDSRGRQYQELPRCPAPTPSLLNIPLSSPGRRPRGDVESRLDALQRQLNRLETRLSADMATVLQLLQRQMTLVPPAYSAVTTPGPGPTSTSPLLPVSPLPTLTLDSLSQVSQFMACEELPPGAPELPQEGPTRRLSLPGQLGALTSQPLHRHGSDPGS
Chain of Tyrosine-protein kinase JAK1 (P23458 whole entry): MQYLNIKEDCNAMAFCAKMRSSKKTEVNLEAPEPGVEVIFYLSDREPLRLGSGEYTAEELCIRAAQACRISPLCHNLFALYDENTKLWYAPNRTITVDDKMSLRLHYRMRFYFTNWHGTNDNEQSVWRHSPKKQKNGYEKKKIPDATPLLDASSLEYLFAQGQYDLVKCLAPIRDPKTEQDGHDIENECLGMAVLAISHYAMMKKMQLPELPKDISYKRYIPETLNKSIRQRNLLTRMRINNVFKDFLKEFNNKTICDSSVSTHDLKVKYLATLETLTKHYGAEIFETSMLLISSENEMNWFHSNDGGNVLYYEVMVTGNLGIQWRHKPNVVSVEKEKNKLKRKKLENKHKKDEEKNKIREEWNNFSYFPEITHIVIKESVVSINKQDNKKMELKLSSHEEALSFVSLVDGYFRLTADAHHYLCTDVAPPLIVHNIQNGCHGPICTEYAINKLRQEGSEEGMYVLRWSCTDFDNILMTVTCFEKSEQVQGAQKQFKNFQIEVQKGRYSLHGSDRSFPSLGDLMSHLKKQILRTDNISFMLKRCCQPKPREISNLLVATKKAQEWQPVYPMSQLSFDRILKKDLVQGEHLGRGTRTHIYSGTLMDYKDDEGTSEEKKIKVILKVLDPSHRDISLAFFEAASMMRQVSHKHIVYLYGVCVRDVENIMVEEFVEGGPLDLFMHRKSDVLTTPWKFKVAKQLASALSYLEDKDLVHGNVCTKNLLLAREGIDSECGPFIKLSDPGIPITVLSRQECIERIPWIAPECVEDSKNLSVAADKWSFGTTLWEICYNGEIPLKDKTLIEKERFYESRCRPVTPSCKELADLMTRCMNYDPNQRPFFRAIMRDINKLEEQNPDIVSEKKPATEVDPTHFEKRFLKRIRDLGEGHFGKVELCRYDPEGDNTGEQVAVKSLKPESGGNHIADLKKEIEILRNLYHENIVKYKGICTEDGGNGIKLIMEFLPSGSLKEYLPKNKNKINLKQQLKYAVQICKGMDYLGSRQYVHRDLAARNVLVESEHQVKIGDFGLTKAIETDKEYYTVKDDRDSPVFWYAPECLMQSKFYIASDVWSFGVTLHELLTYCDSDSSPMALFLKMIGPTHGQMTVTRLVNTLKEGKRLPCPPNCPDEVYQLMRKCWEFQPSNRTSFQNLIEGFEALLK

Take `CCC(=O)N1CCc2oc(-c3nc(Nc4ccc(N5CCOCC5)cc4)ncc3C)cc2C1`: the figures for the IC50 in [1] and in series [2] were 5.8 nM and 112 nM, respectively.
Turning to `Cc1cnc(Nc2ccc(N3CCOCC3)cc2)nc1-c1cc2c(o1)CCN(C(=O)c1ccc(C#N)cc1)C2`, the IC50 (as a rule, the midpoint of a concentration-inhibition curve) in series [1] was 28.8 nM; in series [2], 431 nM.
For the compound `Cc1cnc(Nc2ccc(-n3ccnc3)cc2)nc1-c1cc2c(o1)CCN(S(C)(=O)=O)C2`, the IC50 in series [1] amounted to 10.8 nM; in series [2] it was 91.3 nM.
Consider `Cc1cnc(Nc2ccc(N3CCOCC3)cc2)nc1-c1cc2c(o1)CCN(C(=O)CC#N)C2`, for which the Cmax (usually the highest concentration seen after dosing) in “in vivo [3]” amounted to 540 ng/mL; in series [5] it was 2340 ng/mL. Further, the Vz in [4] is 17.82 L/kg. Besides, the IC50 in series [1] is 0.5 to 0.7 nM; in series [7], over 30000 nM; in series [2], 7.6 to 13.5 nM; in series [16], 5.1 nM; in series [24], 3 nM. The inhibition (usually how much of the control response was suppressed) at 0.3 µM against hERG (KCNH2) [6] turned out to be 1.9%. Further, in series [8], the Vd was 2 L/kg. The results for the MRT last (in the series “in vivo [9]”; in series [14]) were 3.49 h and 0.5 h, respectively. The same compound had an inhibition at 30 µM against hERG (KCNH2) [10] of 16.4%. For the same compound, the clearance (in general, the rate of elimination divided by the concentration) in series [11] was 42 mL/min/kg. For the same compound, the values for the AUC(0-t) (in the series “in vivo [12]”; in series [20]) were 2190 ng·h/mL and 1000 ng·h/mL, respectively. Besides, the CL/F (usually clearance divided by bioavailability, as obtained after extravascular dosing) in the series “in vivo [13]” is 71.8 mL/min/kg. Besides, the half-life – broadly, the time needed for the level to fall by half in the phase considered – in the series “in vivo [15]” was 2.91 h; in series [22], 0.55 h. For the same compound, the figures for the Activity in the series on Rattus norvegicus [17] and with Rattus norvegicus [18] were 113.2% and 14.1%, respectively. Moreover, in series [19], the bioavailability (in general, the share of a dose that reaches the circulation, judged against a reference dose that is usually intravenous) is 54.8%. The inhibition at 3 µM against hERG (KCNH2) [21] is 11.2%. Besides, the AUC (as a rule, the area under the concentration-time curve, a measure of exposure) at 240 h in the series “in vivo [23]” was determined as 1490 ng·h/mL.
For `Cc1cnc(Nc2ccc(OCCN3CCCC3)cc2)nc1-c1cc2c(o1)CCN(C(=O)CC#N)C2`, the figures for the IC50 in [1] and in [2] were 9.6 nM and 52 nM, respectively.
The like results for `Cc1cnc(Nc2cc(F)c(N3CCOCC3)c(F)c2)nc1-c1cc2c(o1)CCN(S(C)(=O)=O)C2` were, in that order, 3.7 nM and 195 nM.
Consider `Cc1cnc(Nc2ccc(N3CCOCC3)cc2)nc1-c1cc2c(o1)CCN(C(=O)c1cccc(C#N)c1)C2`, for which the IC50 in series [1] worked out at 35.4 nM; in [2] it was 552 nM.
The like results for `Cc1cnc(Nc2ccc(N3CCN(C)CC3)cc2)nc1-c1cc2c(o1)CCN(C(=O)CC#N)C2` were, in that order, 1.6 nM and 33.7 nM.
For `Cc1cnc(Nc2ccc(OCCN3CCCC3)cc2)nc1-c1cc2c(o1)CCN(S(C)(=O)=O)C2`, in that order: 4.1 nM and 56.7 nM.
The like results for `Cc1cnc(Nc2ccc([N+](=O)[O-])cc2)nc1-c1cc2c(o1)CCN(C(=O)CC#N)C2` were, in that order, 14.2 nM and 275 nM.
With `COc1cc(Nc2ncc(C)c(-c3cc4c(o3)CCN(C(=O)CC#N)C4)n2)cc(OC)c1OC`, the figures for the IC50 in [1] and in [2] were 1.6 nM and 12 nM, respectively.
On to `Cc1cnc(Nc2cccc(N3CCN(C)CC3)c2)nc1-c1cc2c(o1)CCN(S(C)(=O)=O)C2`, for which the results for the IC50 in [1] and in series [2] were 112 nM and 751 nM, respectively.
For `Cc1cnc(Nc2ccc(F)cc2)nc1-c1cc2c(o1)CCN(S(C)(=O)=O)C2`, in that order: 12.1 nM and 5080 nM.
The like results for `Cc1cnc(Nc2cc(F)c(N3CCOCC3)c(F)c2)nc1-c1cc2c(o1)CCN(C(=O)CC#N)C2` were, in that order, 4.2 nM and 88.1 nM.
`Cc1cnc(Nc2ccc(F)cc2)nc1-c1cc2c(o1)CCN(C(=O)CC#N)C2` had an IC50 in [2] of 95.7 nM.
As for `Cc1cnc(Nc2ccccc2)nc1-c1cc2c(o1)CCN(C(=O)CC#N)C2`, the IC50 was 2.9 nM in series [1] and 94.7 nM in series [2].
For `Cc1cnc(Nc2ccccc2)nc1-c1cc2c(o1)CCN(S(C)(=O)=O)C2`, in that order: 2.7 nM and 153 nM.
As for `Cc1cnc(Nc2ccc(N3CCOCC3)cc2)nc1-c1cc2c(o1)CCN(C(=O)C(C)C)C2`, the IC50 in series [1] was 6.4 nM; in series [2], 32.4 nM.
